Patent publication CN114573468A, “蛋白抑制剂及其应用” (priority 2022, dated 2022)

Legend:
[1] = system: breast cancer 4T1.2-luc cells (乳腺癌4T1.2-luc细胞); assay: Bioluminescence imaging in mouse breast cancer bone metastasis model; type: in vivo; settings: 0.44mg/ml epirubicin alone, i.p., 5ml/kg, every 3 days
[2] = system: breast cancer 4T1.2-luc cells (乳腺癌4T1.2-luc细胞); assay: X-ray CT of hind limb bones in mouse bone metastasis model; type: in vivo; settings: 0.44mg/ml epirubicin alone, i.p.
[3] = system: breast cancer 4T1.2-luc cells (乳腺癌4T1.2-luc细胞); assay: HE staining of bone sections in mouse bone metastasis model; type: in vivo; settings: 0.44mg/ml epirubicin alone; Fig. 7H
osteoclasts (破骨细胞) = assay: TRAP staining (osteoclasts) of bone sections in mouse bone metastasis model; type: in vivo; settings: Fig. 7N
[4] = biological target: T1, recombinant human legumain (重组人legumain蛋白(rhLegumain)) (Homo sapiens, UniProt Q99538); assay: AEP activity assay with recombinant human legumain, substrate Z-AAN-AMC; type: biochemical; settings: Fig. 2E
T1 construct: 30ng/μl活化的rhLegumain在测定缓冲液; purchased 2199-CY
T1 sequence (Q99538 18-323 limits assumed): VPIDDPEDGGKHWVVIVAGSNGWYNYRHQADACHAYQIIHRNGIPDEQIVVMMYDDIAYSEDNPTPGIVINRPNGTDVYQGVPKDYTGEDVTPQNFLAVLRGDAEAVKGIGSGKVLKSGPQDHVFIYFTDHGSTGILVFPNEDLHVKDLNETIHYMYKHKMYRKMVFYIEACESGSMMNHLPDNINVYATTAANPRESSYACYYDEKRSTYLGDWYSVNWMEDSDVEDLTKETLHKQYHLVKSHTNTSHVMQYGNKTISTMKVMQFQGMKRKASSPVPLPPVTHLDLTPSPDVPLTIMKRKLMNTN

[5] = biological target: T2, endogenous AEP of 293L cells (293L细胞, AEP的内源性酶活性) (Homo sapiens, UniProt Q99538); assay: Endogenous AEP activity in cell lysate and medium of 293L cells; type: cell-based; settings: 293L cells cultured with different doses of inhibitor
T2 construct: 验证抑制剂是否能有效抑制AEP的内源性酶活性; endogenous in cells; host or cells: 293L cells
T2 sequence (Q99538 18-433): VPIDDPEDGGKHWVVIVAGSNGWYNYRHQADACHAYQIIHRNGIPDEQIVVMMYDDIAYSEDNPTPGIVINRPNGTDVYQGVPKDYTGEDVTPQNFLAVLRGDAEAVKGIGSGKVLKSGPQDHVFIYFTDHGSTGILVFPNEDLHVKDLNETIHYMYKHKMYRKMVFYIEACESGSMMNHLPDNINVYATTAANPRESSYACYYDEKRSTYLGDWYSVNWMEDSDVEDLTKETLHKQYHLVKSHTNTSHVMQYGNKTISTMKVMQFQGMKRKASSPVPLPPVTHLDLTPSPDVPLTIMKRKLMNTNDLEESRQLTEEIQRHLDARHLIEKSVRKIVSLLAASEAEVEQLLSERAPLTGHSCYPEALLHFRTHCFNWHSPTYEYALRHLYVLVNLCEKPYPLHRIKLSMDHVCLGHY

[6] = system: AEP (breast cancer 4T1.2 cells, 乳腺癌4T1.2细胞); assay: Immunoblot of AEP expression in 4T1.2 cells; type: cell-based, mouse; settings: 1 μM, 96h, vs control (0nM), p<0.05
E-cadherin = assay: Immunoblot of E-cadherin expression in 4T1.2 cells (EMT); type: cell-based, mouse; settings: 100nM and 1μM, 96h
Snail = assay: Immunoblot of Snail expression in 4T1.2 cells (EMT); type: cell-based, mouse; settings: 100nM and 1μM, 96h
MMP-9 = assay: Immunoblot of MMP-9 expression in 4T1.2 cells (EMT); type: cell-based, mouse; settings: 100nM and 1μM, 96h
4T1.2 cells (4T1.2细胞) = assay: Cell scratch (migration) assay, 4T1.2; type: cell-based, mouse; settings: 4T1.2, scratch assay, concentration-dependent
[7] = system: breast cancer MDA-MB-231 cells (乳腺癌MDA-MB-231细胞); assay: Cell scratch (migration) assay, MDA-MB-231; type: cell-based, human; settings: MDA-MB-231, scratch assay, concentration-dependent
[8] = system: breast cancer 4T1.2 cells (乳腺癌4T1.2细胞); assay: Transwell Matrigel invasion assay, 4T1.2; type: cell-based, mouse; settings: 4T1.2, Transwell Matrigel, 12h, concentration-dependent
[9] = system: breast cancer 4T1.2 cells (乳腺癌4T1.2细胞); assay: Survival of BALB/C mice with subcutaneous 4T1.2 tumors; type: in vivo, mouse; settings: inhibitor given in combination with 0.44mg/ml epirubicin
[10] = system: human breast cancer cells MDA-MB-231 (人乳腺癌细胞MDA-MB-231)
[11] = system: mouse highly metastatic breast cancer cells 4T1.2 (小鼠高转移性乳腺癌细胞4T1.2)

Row | Compound | bone tumor growth (bioluminescence) [1] | bone structure and bone erosion (X-ray CT) [2] | tumor cell invasion of bone tissue (HE staining) [3] | increase in osteoclast number in the epirubicin group compared with the 2 inhibitor-treated groups (osteoclasts (破骨细胞); 0.44mg/ml epirubicin alone) | AEP enzyme activity over time ([4]; 100nM inhibitor vs control (0nM), p<0.05, pH5.0) | AEP enzyme activity over time ([4]; 1 μM inhibitor vs control (0nM), p<0.01, pH5.0) | AEP enzyme activity in cell culture medium [5] | decrease of AEP expression [6] | E-cadherin expression (E-cadherin) | Snail expression (Snail) | MMP-9 expression (MMP-9) | cell migration ability (4T1.2 cells (4T1.2细胞)) | cell migration ability [7] | number of invading cells [8] | survival of tumor mice [9] | increase in osteoclast number in the control group compared with the 2 inhibitor-treated groups (osteoclasts (破骨细胞); control (PBS) relative to groups given epirubicin + inhibitor) | cell viability / growth compared with control [10] | cell viability / growth compared with control [11]
1 | COc1cccc2c1C(=O)c1c(O)c3c(c(O)c1C2=O)C[C@@](O)(C(=O)CO)C[C@@H]3O[C@H]1C[C@H](N)[C@@H](O)[C@H](C)O1 [表柔比星] | 所有小鼠的胫骨近端、股骨或背侧脊柱都有肿瘤生长 | 骨结构不完整,存在骨侵蚀 | 肿瘤细胞突破了骨组织,呈现侵袭状 | 3.6 倍 (fold) |  |  |  |  |  |  |  |  |  |  |  |  |  | 
2 | CH2CH[N(CH2CH3)2]CON(COCH2Cl)CH2CONH2 [化合物①] |  |  |  |  | 显著抑制 | 显著抑制 | 能够以剂量依赖性方式抑制 | 82.31% | 表达上调 | 表达下调 | 表达下调 | 减弱 | 减弱 | 减少各细胞的侵袭细胞数目 | 明显延长 | 4 倍 (fold) | 与对照组相差很小 | 与对照组相差很小
